Reference: patent US11661420B2 (NANJING HEPO PHARMACEUTICAL CO., LTD, priority 2019, dated 2023)
Read-outs that look alike come from different tables or passages of the source.

Legend:
[1] = tested on: HBV DNA; settings: cited from earlier work
[2] = tested on: HBsAg; settings: cited from earlier work
[3] = read-out: CC50 cytotoxicity; cited from earlier work
[4] = tested on: HBV surface antigen (HBsAg); test: Cryopreserved PHH assay, ELISA of hepatitis B surface antigen in culture supernatant; type: cell-based, type D HBV in human primary hepatocytes (PHH); settings: Hepatitis B virus, 240 h, read-out: HBsAg EC50
Method: (§1) The inhibitory effect of the compounds on HBV was evaluated by real-time quantitative qPCR assay (real time-qPCR) to detect the HBV DNA content in human primary hepatocytes (PHH) culture supernatant, and ELISA to detect the hepatitis B surface antigen and e antigen content, the EC50 value of the compounds was used as an indicator; meanwhile, the cell viability was detected by CellTiter-Glo to evaluate the toxicity of the compounds to cells.
(§2) 3.1. On day 0, PHH (1.32×10^5 cells/well) was seeded into a 48-well plate and incubated overnight at 37° C., 5% CO2.
(§3) 3.2. On the first day, PHH was infected with type D HBV (concentrated from HepDE19 cell culture supernatant).
(§4) 3.3 On the second day, the test compound was diluted to 7 concentrations with 5-fold serial dilution. Reference compound Peg-IFN-α 2a, 7 concentrations with 3-fold serial dilution. Compounds with different concentrations were added to the culture wells, and the wells were double-duplicated wells. The final concentration of DMSO in the culture medium was 2%.
(§5) 3.4 On the 4th, 6th, and 8th day, the culture medium was replaced by a fresh culture medium containing the compound.
(§6) 3.5 After collecting the culture supernatant from the culture well on the 10th day, the cell viability was tested with CellTiter-Glo. A portion of the culture supernatant was collected for ELISA determination to detect the content of hepatitis B virus surface antigen and e antigen; a portion of the sample was collected for extract DNA using a high-throughput DNA purification kit, referring to the product instructions for the specific steps.
(§7) 3.7 ELISA determination of hepatitis B virus surface antigen and e antigen
(§8) The specific steps can be referred to the product manual, the steps are briefly described as follows: 50 μL of sample and standard was added to the reaction plate respectively, 50 μL of enzyme conjugate was added to each well, the mixture was shaken and mixed well, then kept in a warm bath at 37° C. for 60 minutes, the plate was washed with washing solution for 5 times, 50 μL of the luminescent substrate was added to each well, the mixture was mixed well, and the reaction was carried out in the dark at room temperature for 10 minutes, and finally the chemiluminescence intensity was detected with the instrument.
(§9) Calculation of the inhibition percentage of HBV DNA, HBV surface antigen and e antigen. % Inh.=(1−value of the sample/value of DMSO control)×100.

[5] = tested on: HBV e antigen (HBeAg); test: Cryopreserved PHH assay, ELISA of hepatitis B e antigen in culture supernatant; type: cell-based, type D HBV in human primary hepatocytes (PHH); settings: Hepatitis B virus, 240 h, read-out: HBeAg EC50
Method: as §1, §2, §3, §4, §5, §6, §7, §8, §9

[6] = tested on: HBV DNA; test: Cryopreserved PHH assay, real-time qPCR of HBV DNA in culture supernatant; type: cell-based, type D HBV in human primary hepatocytes (PHH); settings: Hepatitis B virus, 240 h; PHH infected with type D HBV, supernatant day 10, qPCR
Method: as §1, §2, §3, §4, §5, §6
3.6 Quantitative PCR to detect the content of HBV DNA
The qPCR reaction mixture, sample and standard were added to the 384 well reaction plate. PCR reactions: 95° C., 10 min; 95° C., 15 sec, 60° C., 1 min, 40 cycles.
as §9

[7] = Cryopreserved PHH assay, cell viability by CellTiter-Glo; type: cell-based; settings: human, cryopreserved primary human hepatocytes (PHH), day 10, CellTiter-Glo
Method: as §1, §2, §4, §5, §6
Calculation of the percentage of cell viability: % viability=the luminescence value of the sample/the luminescence value of the DMSO control×100.

SMILES	EC50 [1]	EC50 [2]	CC50 [3]	EC50 [4]	EC50 [5]	EC50 [6]	CC50 at 8 days [7]
Clc1cc2nc(N3CCN(c4ccccn4)CC3)[nH]c2cc1Cl [BM601]	0.6 µM	1.5 µM	24.5 µM	–	–	–	–
CC1(C)N=C(c2nc(-c3ccc(C(=O)NS(C)(=O)=O)cc3)cs2)Nc2ccccc21 [Compound I-66]	–	–	–	0.369 µM	0.0317 µM	0.0304 µM	> 50 µM
CC1(C)OC(c2nc(-c3ccc(C(=O)O)cc3)cs2)=Nc2ccccc21 [Compound I-67, 4-(2-(4,4-dimethyl-4H-benzo[d] [1,3]oxazin-2-yl)thiazol-4-yl)benzoic acid]	–	–	–	0.147 µM	0.0042 µM	0.0179 µM	> 50 µM
O=C(O)c1ccc(-c2csc(C3=NC4(COC4)c4cccc(Cl)c4N3)n2)cc1 [Compound I-11, 4-(2-(8′-chloro-1′H-spiro[oxetanyl-3,4′-quinazolin]-2′-yl)thiazol-4-yl)benzoic acid]	–	–	–	0.163 µM	0.017 µM	0.021 µM	> 50 µM
O=C(O)c1ccc(-c2csc(C3=NCc4cccc(Cl)c4N3)n2)cc1 [Compound I-1, 4-(2-(8-chloro-1,4-dihydroquinazolin-2-yl)thiazol-4-yl)benzoic acid]	–	–	–	38.1 µM	18.1 µM	22.2 µM	> 50 µM
CC1(C)N=C(c2nc(-c3ccc(C(=O)O)cc3)cs2)Nc2cc(Cl)ccc21 [Compound I-25, 4-(2-(7-chloro-4,4-dimethyl-1,4-dihydroquinazolin-2-yl)thiazol-4-yl)benzoic acid]	–	–	–	0.44 µM	0.0632 µM	0.0988 µM	> 50 µM
CC1(C)N=C(c2nc(-c3ccc(C(=O)O)cc3)cs2)Nc2ccccc21 [Compound I-20, 4-(2-(4,4-dimethyl-1,4-dihydroquinazolin-2-yl)thiazol-4-yl)benzoic acid]	–	–	–	0.032 µM	0.004 µM	0.005 µM	> 50 µM
CC1(C)N=C(c2nc(-c3ccc(C(=O)O)cc3)cs2)Nc2c(F)cccc21 [Compound I-21, 4-(2-(8-fluoro-4,4-dimethyl-1,4-dihydroquinazolin-2-yl)thiazol-4-yl)benzoic acid]	–	–	–	0.0165 µM	0.0048 µM	0.0069 µM	> 50 µM
CC1N=C(c2ccc(-c3ccc(C(=O)O)cc3)cc2)Nc2c(Cl)cccc21 (centres unmarked) [Compound I-43, 4′-(8-chloro-4-methyl-1,4-dihydroquinazolin-2-yl)-[1.1′-biphenyl]-4-carboxylic acid]	–	–	–	> 50 µM	40.8 µM	> 50 µM	> 50 µM
CC1(C)N=C(c2ccc(-c3ccc(C(=O)O)cc3)cn2)Nc2c(Cl)cccc21 [Compound I-48, 4-(6-(8-chloro-4,4-dimethyl-1,4-dihydroquinazolin-2-yl)pyridin-3-yl)benzoic acid]	–	–	–	> 50 µM	0.426 µM	4.02 µM	> 50 µM
CC1(C)N=C(c2cc(-c3ccc(C(=O)O)cc3)co2)Nc2c(Cl)cccc21 [Compound I-50, 4-(5-(8-chloro-4,4-dimethyl-1,4-dihydroquinazolin-2-yl)furan-3-yl)benzoic acid]	–	–	–	0.102 µM	0.0537 µM	0.0775 µM	> 50 µM
CC1(C)N=C(c2cc(-c3ccc(C(=O)O)cc3)c[nH]2)Nc2c(Cl)cccc21 [Compound I-51, 4-(5-(8-chloro-4,4-dimethyl-1,4-dihydroquinazolin-2-yl)-1H-pyrrol-3-yl)benzoic acid]	–	–	–	> 50 µM	0.01 µM	0.0097 µM	> 50 µM
